For assay [1], the system named is HGFIN mRNA in bone marrow stroma. As to the kind of experiment: Northern analysis of HGFIN mRNA in stimulated bone marrow stroma. The format is cell-based, human. The settings on record: bone marrow stroma vs unstimulated. The method, then: (§1) Cell Stimulation. Peripheral blood mononuclear cells (PBMC) were resuspended in RPMI 1640 containing 2% FCS at 10^6/ml. Cell suspension, 10 ml, was stimulated with 1 μg/ml of LPS. bone marrow stroma was stimulated in sera-free α-MEM (Sigma) with the following: 10 μg/ml SCF, 5 ng/ml IL-11, 5 U/ml […], 5 ng/ml […], 25 ng/ml NGF and […]. Dose-response curves with slot blots for HGFIN mRNA determined the optimal concentration of each stimulus. During stromal cell stimulation, culture media were supplemented with insulin-transferring-selenium-A (Life Technologies, Grand Island, N.Y.). In both types of cells, controls included parallel cultures in similar media. At 8 hours and 16 hours, total RNA was extracted from each experimental point and control and then analyzed by northern analyses for HGFIN mRNA.
(§2) Northern Analysis. Northern analysis for steady state HGFIN mRNA was performed as described (Rameshwar, et al. (1997) J. Immunol. 158:3417-3424). Total RNA was extracted from the experimental cells and 10 μg from each was separated in 1.2% agarose. RNA was transferred to nylon membranes (S & S NYTRAN, Keene, N.H.) and then hybridized with [α-^32P]-dATP-labeled cDNA probes specific for HGFIN or Id2. Membranes were stripped and then reprobed with cDNA for 18S rRNA. Probes were randomly labeled with [α-^32P]-dATP, 3000 Ci/mM, (Dupont/NEN, Boston, Mass.) using the PRIME-IT II random primer kit (Stratagene). The membrane was placed in a PHOSPHOIMAGER cassette (Molecular Dynamics, Sunnyvale, Calif.) and then scanned at different times beginning at 6 hours to 24 hours on a PHOSPHOIMAGER (Molecular Dynamics). Negative results were not attributed to the lack of total RNA on the membrane since each was hybridized with a cDNA probe for 18S rRNA.
The mesenchymal/stromal cells of the bone marrow produce most of the necessary soluble regulators that modulate bone marrow organ functions (Muller-Sieburg & Deryugina (1995) supra). Since HGFIN expression was altered in activated PBMC, the next set of studies examined the role of HGFIN in activated bone marrow stroma. The following stimulators were used: cytokines, SCF, IL-11, IL-1(α, β) and IL-6 and a neurotrophic factor, NGF. […] Densitometric scans were normalized with 18S rRNA and the fold (mean±SD) increase over unstimulated stroma was determined. […] However, together, the levels of HGFIN mRNA in the cytokine-stimulated cultures were much less than in stroma stimulated with NGF.

In the next assay the test system is HGFIN mRNA in HL-60. As to the kind of experiment: Northern analysis of HGFIN mRNA in differentiated HL-60. The format is cell-based. The settings on record: HL-60 differentiated to monocytes (TPA) or granulocytes (DMSO). Here is the method:
(§3) Cell Differentiation. Cell differentiation was performed with a myelomonocytic cell line, HL-60, or bone marrow mononuclear cells (BMNC). HL-60 cells were chemically differentiated with TPA and DMSO for monocytes and granulocytes respectively (Miura, et al. (2000) supra; Hegde, et al. (1999) Blood 94:1578-1589). BMNC were isolated from bone marrow aspirate of healthy donors using FICOLL HYPAQUE density gradient.
as §2, with “The membrane was placed in a PHOSPHOIMAGER cassette (Molecular Dynamics, Sunnyvale, Calif.) and then scanned at different times beginning at 6 hours to 24 hours on a PHOSPHOIMAGER (Molecular Dynamics). Negative results were not attributed to the lack of total RNA on the membrane since each was hybridized with a cDNA probe for 18S rRNA.” left out
HGFIN mRNA was studied in differentiated and undifferentiated HL-60 cells to determine if the expression of this gene was limited to normal bone marrow progenitors. […] Similar to normal progenitors, HGFIN mRNA was detected in differentiated HL-60. […]

The subject of another assay is Oct4 breast cancer cells. In words: Carboplatin treatment of tumors from Oct4 breast cancer cells in mice. The format is in vivo, athymic BALB/c mice. Here is the method: As discussed above, female athymic BALB/c mice (4 weeks) were obtained from Harlan Laboratories (Somerville, N.J.) and housed in a laminar flow hood at an AAALAC-accredited facility. The use of mice was approved by the Institutional Animal Care and Use Committee, New Jersey Medical School (Newark, N.J.).
Mice were inoculated with Oct4 cells where HGFIN expression was knocked down with siRNA. The cells were injected in a total volume of 0.2 mL subcutaneously in the dorsal flanks. Tumors were monitored daily and measured in two dimensions with a caliper and volume was calculated using the formula V=πr^2h, where r=radius and h=height. Animal were injected with carboplatin (50 mg/kg) on day 0 and day 3 of the test period. Tumors were palpated and tumor volume was measured every other day for two weeks (i.e., days 0, 2, 4, 6, 8, 10, 12 and 14).

In a further assay the test system is HGFIN mRNA in PBMC. As to the kind of experiment: Northern analysis of HGFIN mRNA in stimulated PBMC. The format is cell-based, human. As to conditions: 1 μg/ml LPS. The method, then:
as §1
Northern Analysis. Northern analysis for steady state HGFIN mRNA was performed as described (Rameshwar, et al. (1997) J. Immunol. 158:3417-3424). Total RNA was extracted from the experimental cells and 10 μg from each was separated in 1.2% agarose. […]
As differentiated immune cells express HGFIN, studies were performed to determining if HGFIN was also expressed when these differentiated cells were activated. […] Consistent with HGFIN expression in PBMC, HGFIN mRNA was detected in the unstimulated PBMC.

The subject of a further assay is Id2 in BMNC. In words: Id2 protein in differentiated BMNC. The format is cell-based, human. The method, then:
Further, BMNC cells were differentiated with M-CSF or G-CSF (500 U/ml for each) to monocytes and granulocytes, respectively. Undifferentiated cells were cultured in parallel with only media. Culture media were replaced at two-day intervals until cytochemical staining determined that >90% of the cells were differentiated. At this time, cell differentiation was terminated and the cells analyzed by northern analyses for Id2 and HGFIN mRNA, and by immunoblot for Id2 protein. For HL-60 cultures, cytochemical staining was performed after three days with 100-200 cells. Beginning at day 5, cells from cultures with BMNC were stained and daily thereafter. […]
Western Blots. […] Extracts were centrifuged at 10,000 g for 10 minutes and then determined for total protein concentration using the BIO-RAD Protein Assay kit (BIO-RAD Laboratories, Hercules, Calif.). Extracts (15 Vig) were analyzed by western blot for Id2 protein as described (Rameshwar, et al. (2000) J. Immunol. 165:2271-2277). […] Alk Phos activity was detected with BCIP/NBT substrate System (Kirkeguard & Perry Laboratories, Gaithersburg, Md.). […]
Northern blots were performed in four experiments, each with a different donor. […] However in undifferentiated BMNC (cultured in media alone), Id2 mRNA was detected in each of the four bone marrow donors. […]

The next assay relates to HGFIN mRNA in BMNC. In words: Northern analysis of HGFIN mRNA in BMNC cultured with M-CSF or G-CSF. Type of assay: cell-based, human. The method, then: as §3
Further, BMNC cells were differentiated with M-CSF or G-CSF (500 U/ml for each) to monocytes and granulocytes, respectively. Undifferentiated cells were cultured in parallel with only media. Culture media were replaced at two-day intervals until cytochemical staining determined that >90% of the cells were differentiated. At this time, cell differentiation was terminated and the cells analyzed by northern analyses for Id2 and HGFIN mRNA, and by immunoblot for Id2 protein. For HL-60 cultures, cytochemical staining was performed after three days with 100-200 cells. Beginning at day 5, cells from cultures with BMNC were stained and daily thereafter. Neutrophil and monocyte staining were performed with kits specific for […], respectively.
as §2
Since the HGFIN cDNA was isolated from bone marrow cell subsets, bone marrow and PB mononuclear cells were screened using northern analyses to study the expression of HGFIN. […] After the cells were >90% differentiated to monocytes and neutrophils, cells were analyzed for the expression of HGFIN mRNA by northern analyses.
To verify that the expression of HGFIN was not due to activation by the two cytokines, northern analyses were performed with BMNC cultured with M-CSF or G-CSF and then analyzed for HGFIN mRNA before the cells were differentiated.

The mark [2] stands for this setting: BMNC >90% differentiated to monocytes or neutrophils.
Setting [3] is: BMNC cultured with cytokine, before the cells were differentiated.

Take SCF: Stem cell factor, cytokine: in assay [1], the “HGFIN mRNA induction” value is listed as “induced”.

As to 12-0-tetradecanoylphorbol diester [TPA], the “HGFIN mRNA” value in the assay on HGFIN mRNA in HL-60 is on record as “detected”.

Consider `C[S+](C)[O-]` [DMSO, dimethylsulfoxide], for which the “HGFIN mRNA” value in the assay with HGFIN mRNA in HL-60 is “detected”.

For `N.N.O=C([O-])C1(C(=O)[O-])CCC1.[Pt+2]` [carboplatin], the “tumor cell volume vs before carboplatin treatment” value with Oct4 breast cancer cells (50 mg/kg, two weeks after second injection) is recorded as “statistically significant decreases”. Besides, the “sensitivity of tumors to carboplatin” value in the assay on Oct4 breast cancer cells (HGFIN knocked down with siRNA, 50 mg/kg day 0 and day 3, two weeks after second injection) is “more sensitive”.

For “NGF: nerve growth factor, a neurotrophic factor”, in assay [1], the “HGFIN mRNA induction” value is listed as “induced”.

Regarding IL-6: cytokine, in assay [1], the “HGFIN mRNA induction” value is listed as “induced”.

In the case of lipopolysaccharide [LPS], the “steady state HGFIN mRNA” value with HGFIN mRNA in PBMC (8 hours) is on record as “no difference”; in the assay with HGFIN mRNA in PBMC (16 hours), “down-regulated”.

B1: G-CSF: granulocyte colony-stimulation factor (protein, UniProt P09919 31-207, looked up)
Granulocyte …: TPLGPASSLPQSFLLKCLEQVRKIQGDGAALQEKLVSECATYKLCHPEELVLLGHSLGIPWAPLSSCPSQALQLAGCLSQLHSGLFLYQGLLQALEGISPELGPTLDTLQLDVADFATTIWQQMEELGMAPALQPTQGAMPAFASAFQRRAGGVLVASHLQSFLEVSYRVLRHLAQP
Turning to B1, the “band for Id2 protein” value in the assay on Id2 in BMNC is listed as “very light to undetectable”. Also, the “HGFIN mRNA” value was “detectable” in the assay on HGFIN mRNA in BMNC (setting [2]) and “no detectable HGFIN mRNA” in the assay on HGFIN mRNA in BMNC (setting [3]).

B2: M-CSF: macrophage colony-stimulation factor (protein, UniProt P09603 33-554, looked up)
Macrophage colony-stimulating …: EEVSEYCSHMIGSGHLQSLQRLIDSQMETSCQITFEFVDQEQLKDPVCYLKKAFLLVQDIMEDTMRFRDNTPNAIAIVQLQELSLRLKSCFTKDYEEHDKACVRTFYETPLQLLEKVKNVFNETKNLLDKDWNIFSKNCNNSFAECSSQDVVTKPDCNCLYPKAIPSSDPASVSPHQPLAPSMAPVAGLTWEDSEGTEGSSLLPGEQPLHTVDPGSAKQRPPRSTCQSFEPPETPVVKDSTIGGSPQPRPSVGAFNPGMEDILDSAMGTNWVPEEASGEASEIPVPQGTELSPSRPGGGSMQTEPARPSNFLSASSPLPASAKGQQPADVTGTALPRVGPVRPTGQDWNHTPQKTDHPSALLRDPPEPGSPRISSLRPQGLSNPSTLSAQPQLSRSHSSGSVLPLGELEGRRSTRDRRSPAEPEGGPASEGAARPLPRFNSVPLTDTGHERQSEGSFSPQLQESVFHLLVPSVILVLLAVGGLLFYRWRRRSHQEPQRADSPLEQPEGSPLTQDDRQVELPV
As to B2, the “band for Id2 protein” value in the assay on Id2 in BMNC is “very light to undetectable”. Besides, the “HGFIN mRNA” value with HGFIN mRNA in BMNC (setting [2]) is reported as “detectable”; in the assay with HGFIN mRNA in BMNC (setting [3]), “no detectable HGFIN mRNA”.

B3: IL-11: cytokine (protein, UniProt P20809 22-199, looked up)
Interleukin-11: PGPPPGPPRVSPDPRAELDSTVLLTRSLLADTRQLAAQLRDKFPADGDHNLDSLPTLAMSAGALGALQLPGVLTRLRADLLSYLRHVQWLRRAGGSSLKTLEPELGTLQARLDRLLRRLQLLMSRLALPQPPPDPPAPPLAPPSSAWGGIRAAHAILGGLHLTLDWAVRGLLLLKTRL
As to B3, the “HGFIN mRNA induction” value in assay [1] is “induced”.
